Test system: C. albicans strain SC5314
Assay: Test Example 5: suppression effect of antifungal drugs on biofilm formation on polyurethane fibers in silkworms, drug given 12 hours after inoculation
Format: in vivo, Candida albicans (in silkworm)
Settings: antifungal drug administered 12 hours after inoculation of C. albicans; fibers extracted 24 hours after inoculation; compared with physiological saline
Protocol: Biofilms formed on the surface of the polyurethane fibers after the culture were stained with crystal violet, and the biofilms were quantified. The biofilms were stained as follows. Each of the polyurethane fibers were moved to a 1.5-ml tube and washed with 1 ml of distilled water twice. Then, 500 μl of an aqueous 0.1% crystal violet solution was added, and the polyurethane fiber was placed at room temperature for 20 to 60 minutes. The stain solution was discarded, and the polyurethane fiber were washed with 1 ml of distilled water 3 times. The polyurethane fibers were washed with 1 ml of ethanol twice and then air-dried. The polyurethane fibers were observed under a microscope (×10, CH30, Olympus Corporation), and photographs were taken. Then, 500 μl of 33% acetic acid solution was added, and the polyurethane fibers were left to stand at room temperature for 2 hours or more. The absorbance (OD590) of the sample to which 500 μl of distilled water was added to adjust the total volume to 1 ml was measured.
Next, it was examined whether biofilms by C. albicans were formed on the surface of the polyurethane fibers in the bodies of silkworms. Silkworms in which the polyurethane fibers were inserted were inoculated with 50 μl of physiological saline solution (saline) or 50 μl of a suspension of C. albicans strain SC5314 (7×10^7 cells/ml) and bred at 27° C. for 24 hours. […]

With `C[C@@H]1[C@H](O)[C@@H](C)/C=C/C=C/C=C/C=C/C=C/C=C/C=C/[C@H](O[C@@H]2O[C@H](C)[C@@H](O)[C@H](N)[C@@H]2O)C[C@@H]2O[C@](O)(C[C@@H](O)C[C@@H](O)[C@H](O)CC[C@@H](O)C[C@@H](O)CC(=O)O[C@H]1C)C[C@H](O)[C@H]2C(=O)O` [amphotericin B] the “biofilm formation on the polyurethane fiber in the bodies of the silkworms (crystal violet, absorbance 590 nm)” value was “significantly suppressed”.
